Experimental data published in patent US9006191B2, “Silencing of polo-like kinase expression using interfering RNA” (Protiva Biotherapeutics, Inc., priority 2007, dated 2015).
Entries after “also recorded” stand apart in the source; their conditions may differ.

How the values were obtained:
Hep3B liver tumors = test: Intrahepatic Hep3B tumor model (survival, body weight, tumor burden); format: in vivo
Experimental: SNALP containing PLK-1 siRNA (“1:57” SNALP formulation: 1.4% PEG-cDMA; 57.1% DLinDMA; 7.1% DPPC; and 34.3% cholesterol) were tested for their effects on the survival of […] mice bearing Hep3B liver tumors.
Intrahepatic tumor models. Liver tumors were established in mice by direct intrahepatic injection of Hep3B or Neuro2a tumor cells (45). Female scid/beige mice (Charles River Laboratories) and male A/J mice (Jackson Laboratories) were used as hosts for the Hep3B and Neuro2a tumors, respectively. Animals received Anafen by SC injection immediately prior to surgery. Individual mice were anaesthetized by isoflourane gas inhalation and eye lube applied to prevent excessive eye drying. While maintained under gas anaesthesia, a single 1.5 cm incision across the midline was made below the sternum and the left lateral hepatic lobe exteriorized. 1×10^6 Hep3B cells or 1×10^5 Neuro2a cells suspended in 25 μL PBS were injected slowly into the lobe at a shallow angle using a Hamilton syringe and 30G needle. A swab was then applied to the puncture wound to stop any bleeding prior to suturing. Mice were allowed to recover from anaesthesia in a sterile cage and monitored closely for 2-4 h before being returned to conventional housing.
Eight to 11 days after tumor implantation, mice were randomized into treatment groups. siRNA SNALP formulations or PBS vehicle control were administered by standard intravenous injection via the lateral tail vein, calculated on a mg siRNA/kg basis according to individual animal weights (10 mL/kg injection volume). Body weights were then monitored throughout the duration of the study as an indicator of developing tumor burden and treatment tolerability. For efficacy studies, defined humane endpoints were determined as a surrogate for survival. Assessments were made by qualified veterinary technicians based on a combination of clinical signs, weight loss, and abdominal distension to define the day of euthanization due to tumor burden.
Measurement of human PLK-1 and GAPDH mRNA in tumor tissues. Tumors were harvested directly into RNALater and stored at 4° C. until processing. 100 mg tumor tissue was homogenized in Tissue and Lysis Solution (EpiCentre Biotechnologies) containing […] proteinase K (EpiCentre) in a Fastprep tissue homogenizer followed by incubation in a 65° C. waterbath for 15 min and centrifuged to clarify lysates. mRNA analysis in FIG. 33B was performed on purified RNA isolated according the 5′-RACE-PCR protocol. Human PLK-1 and GAPDH mRNA were measured in tumor lystes by the QuantiGene bDNA assay (Panomics) as per the manufacturer's instructions (Quantigene 1.0 Manual). […] Data were expressed as mean PLK-1:GAPDH ratio+/−SD of individual animals. Tumor burden was assessed by homogenizing the complete liver from tumor bearing mice and measuring the total hGAPDH signal (RLU's) within the liver. Values were expressed as hGAPDH RLU/mg total liver.

Neuro2A cells = test: Neuro2A cell viability assay (CellTiter-Blue); format: cell-based; conditions: mouse Neuro2A cells, SNALP-formulated siRNA, viability at 72 h relative to PBS
Experimental: Various PLK-1 siRNAs were formulated as SNALP (“2:40” SNALP formulation: 2% PEG-cDMA; 40% DLinDMA; 10% DSPC; and 48% cholesterol) and evaluated for their inhibitory effects on cell growth in vitro. HT29 (human colon adenocarcinoma) or Neuro2A (mouse neuroblastoma) cells were treated with various PLK-1 SNALP at a range of siRNA concentrations and their effect on cell viability was evaluated. Viability of cell cultures is expressed as % viability relative to PBS treated controls.
Additional PLK-1 siRNA molecules were formulated as SNALP (“2:40” SNALP formulation: 2% PEG-cDMA; 40% DLinDMA; 10% DSPC; and 48% cholesterol) and evaluated for their inhibitory effects on cell growth in vitro. HT29 or Neuro2A cells were plated in triplicate at 5000 cells/well and 2500 cells/well, respectively. PLK-1 SNALP dosages were as follows: 25 nM; 5 nM; and 1 nM. Cell viability analysis was performed at 72 hours following transfection. SNALP containing a non-targeting (GFP) siRNA were used as a negative control.
Additional PLK-1 siRNA molecules were formulated as SNALP (“2:40” SNALP formulation: 2% PEG-cDMA; 40% DLinDMA; 10% DSPC; and 48% cholesterol) and evaluated for their inhibitory effects on cell growth in vitro. HT29 or Neuro2A cells were plated in triplicate at 5000 cells/well and 2500 cells/well, respectively. PLK-1 SNALP dosages were as follows: 30 nM; 10 nM; and 3.3 nM. Cell viability analysis was performed at 72 hours following transfection. SNALP containing a non-targeting (GFP) siRNA were used as a negative control.

LS174T cells [1] = test: LS174T cell viability assay; format: cell-based, human; conditions: SNALP-formulated siRNA, 72 h
Experimental: SNALP containing PLK1424 or PLK773 siRNA (“2:40” SNALP formulation: 2% PEG-cDMA; 40% DLinDMA; 10% DSPC; and 48% cholesterol) were tested for their effects on cell viability and silencing of PLK-1 mRNA in HT29 and LS174T human colon cancer cells. Cells were plated in triplicate at ˜10,000 cells/well. SNALP dosages were as follows: 30 nM; 10 nM; 3.3 nM; 1.1 nM; 0.37 nM; and 0.12 nM. Branched DNA mRNA assays were performed 24 hours following transfection. Cell viability assays were performed at 72 hours following transfection. SNALP containing a non-targeting (GFP) siRNA were used as a negative control. […] The effects on cell viability correlated with silencing of the target PLK-1 mRNA.

LS174T cells [2] = test: Apoptosis/Caspase 3/7 assay in LS174T cells; format: cell-based, human; conditions: SNALP-formulated siRNA, 24-72 h
Experimental: This assay is based on the specific enzymatic cleavage of the Caspase 3/7 substrate (Z-DEVD)-2-Rhodamine 110 to a fluorogenic product and is used to quantify the level of apoptosis in cultured cells.
SNALP containing PLK1424 or PLK773 siRNA (“2:40” SNALP formulation: 2% PEG-cDMA; 40% DLinDMA; 10% DSPC; and 48% cholesterol) were further tested for their effects on inducing the apoptosis of LS174T cells. Cells were plated in triplicate at ˜10,000 cells/well. SNALP dosages were as follows: 30 nM; 10 nM; and 3.3 nM. Caspase 3/7 assays were performed at 24, 48, and 72 hours following transfection. SNALP containing a non-targeting (GFP) siRNA were used as a negative control.

[3] = Hep3B-nu/nu mouse model, 2 mg/kg twice weekly d11-d28

Row | Substance | mice with visible tumors at autopsy (Hep3B liver tumors; day 22, 1 day after fifth 2 mg/kg dose) | survival advantage (Kaplan-Meier, Log-rank) (Hep3B liver tumors; scid/beige mice, 6 × 2 mg/kg IV twice weekly, d 10 to d 28) | cell viability / inhibition of cell growth (Neuro2A cells) | cell viability / inhibition of cell growth (LS174T cells [1]) | induction of apoptosis (Caspase 3/7 activity) (LS174T cells [2]) | median survival, Study (A) (Hep3B liver tumors; [3]) | median survival, study (B) (Hep3B liver tumors; [3])
1 | PLK1424-2/A: 2′OMe-modified PLK1424 duplex, SEQ ID NO:214/215 (same SEQ IDs as PLK1424 1/3 of Table 11) (chain 1 AGANCACCCNCCUNAAANAUU; chain 2 UAUUUAANGAGGGUGANCUUU; siRNA; 2'-O-methyl modifications at selected positions, key for n not given here) | 2 of 6 | significant survival advantage over control treatment |  |  |  |  | 
2 | PLK1424: siRNA to human PLK-1, SEQ ID NO:1/2 (UU overhang form 211/212) (chain 1 AGAUCACCCUCCUUAAAUA; chain 2 UAUUUAAGGAGGGUGAUCU; further chemistry not given here) |  |  | inactivity in the mouse cell line | inhibiting cell growth; also recorded: potent activity | induced a significant amount of apoptosis in LS174T cells at all SNALP doses tested; also recorded: dose-dependent induction of apoptosis 48 h after siRNA transfection | 45 days | 42 days
3 | PLK773: siRNA to human PLK-1, SEQ ID NO:3/4 (UU overhang form 218/219) (chain 1 AGACCUACCUCCGGAUCAA; chain 2 UUGAUCCGGAGGUAGGUCU; RNA, backbone not given here) |  |  | most potent human/mouse cross-reactive siRNA molecules | inhibiting cell growth | induced a significant amount of apoptosis in LS174T cells at all SNALP doses tested |  | 
